# Measured values: EP4570803A1, “SALT FORM AND CRYSTAL FORM OF 5,6-DIHYDROTHIENO[3,4-H]QUINAZOLINE COMPOUND AND PREPARATION METHOD THEREFOR” (NovaOnco JS Therapeutics Co., Ltd., priority 2022, dated 2024)
# Legend:
# [1] = Hygroscopicity study by Dynamic Vapor Sorption (DVS); format: physicochemical; details: for Hygroscopicity classification: 25°C and 80% RH; for ΔW: weight gain at 25°C, humidity 80 % RH
# Procedure: • Instrument model: SMS DVS Intrinsic Dynamic Vapor Sorption Instrument • Test conditions: Take a sample (10 ~ 30 mg) and place it in the DVS sample pan for testing.
# Hygroscopicity classification
# 10-30 mg of the crystalline form A of the compound of formula (I) was placed in a DVS sample tray for testing.
# 10-30 mg of the crystalline form B of the compound of formula (II) was placed in a DVS sample tray for testing.
# 10-30 mg of the crystalline form C of the compound of formula (III) was placed in a DVS sample tray for testing.
# [2] = Pharmacokinetic study of oral administration in male beagle dogs; format: in vivo
# Procedure: Oral administration group: Weigh an appropriate amount of the test compound (calculated in free form), dissolve it in a 0.5% MC aqueous solution, vortex and sonicate for 10 min until the compound was milky white and uniformly suspended, and prepare a 1.0 mg/mL uniform suspension solution for use. Male beagle dogs weighing about 11 kg were selected and orally administered with the test compound. Sample collection time was: 0.083, 0.25, 0.5, 1, 2, 4, 6, 8, and 24 hours.
# 1 mL of whole blood was collected from the forelimb vein to prepare plasma for concentration determination by high performance liquid chromatography - tandem mass spectrometry (LC-MS/MS). The non-compartmental model of WinNonlin 8.2.0 (Pharsight, Mountain View, CA), pharmacokinetic software, was used to process plasma concentrations, and the linear logarithmic trapezoidal method was used to calculate pharmacokinetic parameters. Pharmacokinetic study results of crystalline form A, crystalline form B and crystalline form C
# [3] = Solid stability test at high temperature and high humidity (XRPD); format: physicochemical
# Procedure: According to the "Guidelines for Stability Testing of APIs and Preparations" (Chinese Pharmacopoeia 2020 Edition, Part IV, General Rules 9001), the stabiilty of the crystalline form A of compound of formula (I) and the crystalline form B of compound of formula (II) was investigated at high temperature and high humidity (40°C/75%RH, open) (60°C/75%RH, open) conditions.
# Weigh 10-30 mg of the crystalline form A of the formula (I) and the crystalline form B of the compound of formula (II), place them at the bottom of a glass sample bottle, and spread them into a thin layer. The samples were placed open to ensure that the samples were fully in contact with the ambient air. The samples placed under different conditions were sampled and tested (XRPD) on the 10th day, 30th day, and 60th day, and the test results were compared with the initial test results on day 0. Stability test results of the crystalline form of compound A of formula (I) and the crystalline form B of compound of formula (II)
# [4] = Crystalline form screening: suspension crystallization; format: physicochemical; details: for Result (crystal form): 50 °C, suspension
# Description: The operation process of suspension crystallization was to weigh a certain amount of the crystalline form A of the compound of formula (I), add a certain amount of solvent, maintain the system in a state of suspension and stir at a certain temperature, and filter out the solid for analysis after a period of time. Table 6. Suspension crystallization
# [5] = Crystalline form screening: cooling crystallization; format: physicochemical; details: 50-25 °C
# Description: The cooling crystallization operation process was to dissolve a certain amount of the crystalline form A of the compound of formula (I) in a certain amount of solvent at high temperature, stir at high temperature for a period of time, and then cool to a lower temperature at a certain cooling rate. If solid precipitates after cooling to a low temperature, filter it out for solid state analysis. Table 7. Cooling crystallization
# [6] = Crystalline form screening: anti-solvent crystallization; format: physicochemical; details: 25 - 5 °C
# Description: The operation process of anti-solvent crystallization was to dissolve a certain amount of the crystalline form A of the compound of formula (I) in a positive solvent to obtain a solution of the raw material drug, slowly add the raw material drug solution to the anti-solvent at a certain temperature, and filter out any solid precipitation for analysis. Table 8. Anti-solvent crystallization
# [7] = target: T1, human PLK1 protein kinase (Homo sapiens, UniProt P53350); experiment: 33P isotope-labeled PLK1 kinase activity assay in vitro; format: biochemical
# T1 construct: purchased Reaction Biology Corp
# T1 sequence (P53350 whole entry): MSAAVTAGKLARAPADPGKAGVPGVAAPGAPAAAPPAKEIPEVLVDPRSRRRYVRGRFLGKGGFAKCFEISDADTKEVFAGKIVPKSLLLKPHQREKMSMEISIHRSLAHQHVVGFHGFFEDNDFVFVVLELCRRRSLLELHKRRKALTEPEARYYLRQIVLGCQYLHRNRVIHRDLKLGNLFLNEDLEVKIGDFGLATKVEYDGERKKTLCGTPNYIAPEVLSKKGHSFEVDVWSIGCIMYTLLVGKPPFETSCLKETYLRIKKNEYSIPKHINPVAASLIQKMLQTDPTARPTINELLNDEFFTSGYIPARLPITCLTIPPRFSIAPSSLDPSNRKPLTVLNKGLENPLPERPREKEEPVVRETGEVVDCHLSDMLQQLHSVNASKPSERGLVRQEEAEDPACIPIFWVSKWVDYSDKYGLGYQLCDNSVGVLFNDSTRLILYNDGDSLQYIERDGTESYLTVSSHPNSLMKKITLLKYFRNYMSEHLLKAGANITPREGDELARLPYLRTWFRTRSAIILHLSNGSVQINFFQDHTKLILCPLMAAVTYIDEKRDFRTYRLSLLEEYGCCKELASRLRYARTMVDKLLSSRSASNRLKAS
# Procedure: The IC50 value was determined using ^33P isotope-labeled kinase activity assay (Reaction Biology Corp) to evaluate the inhibitory ability of the test compounds on human PLK1 protein kinase.
# Buffer conditions: 20 mM HEPES (pH 7.5), 10 mM MgCl2, 1 mM EGTA, 0.01% Brij35, 0.02 mg/ml BSA, 0.1 mM Na3VO4, 2 mM DTT, 1% DMSO
# Test steps: Dissolve the test compound in DMSO at room temperature to prepare a 10 mM solution for use. Dissolve the substrate Casein in a freshly prepared buffer (final concentration 20 µM), add the tested PLK1 kinase (final concentration 12 nM) and mix well. Add the DMSO-dissolved test compound stock solution to the above mixed reaction solution using the acoustic pipetting system Echo 550 according to the set final concentration gradient (highest final concentration was 1 µM, 3-fold dilution, 10 gradients). After incubation at room temperature for 20 minutes, add ^33 P-ATP (final concentration 0.01 µCi/µL), incubate at room temperature for 120 minutes, and then spot the reaction solution on P81 ion exchange filter paper (Whatman # 3698-915). After repeatedly washing the filter paper with 0.75% phosphoric acid solution, the level of residual radioactive phosphorylated substrate on the filter paper was determined. % kinase activity = kinase activity test compound/ kinase activity blank group (DMSO) × 100%. […]
# [8] = listed as crystalline form C of the compound of formula (III)
# [9] = dog, 5 mg/kg, PO, 5.0 mpk (calculated in free state), 0.5% MC aqueous suspension, plasma
# [10] = dog, plasma, po, 5 mg/kg, 5.0 mpk (calculated in free state), 0.5% MC aqueous suspension
smiles,measurement,setting,value
CSc1sc(C(N)=O)c2c1-c1nc(Nc3cc(N4CCN(C)CC4)ccc3OC(F)(F)F)ncc1CC2 [listing 1 of 3 here],Hygroscopicity classification,[1]; [8],hygroscopic
same,ΔW,[1]; [8],2.919%
same,AUC(0-t) at 24 h,[2]; [9],1.59 µM·h
same,Cmax,[2]; [9],132 nM
same,Tmax,[2]; [9],6 h
same,half-life,[2]; [9],4 h
CSc1sc(C(N)=O)c2c1-c1nc(Nc3cc(N4CCN(C)CC4)ccc3OC(F)(F)F)ncc1CC2 [listing 2 of 3 here],Hygroscopicity classification,[1]; listed as crystalline form B of the compound of formula (II),hygroscopic
same,ΔW,[1]; listed as crystalline form B of compound (II),2.078%
same,Crystal form,"[3]; 40 °C /75%RH, open, 10 days, listed as Crystalline Form B of Compound of Formula (II)",crystal form B
same,Crystal form,"[3]; 60 °C /75%RH, open, 10 days, listed as Crystalline Form B of Compound of Formula (II)",crystal form B
same,Crystal form,"[3]; Initial sample, Day 0, listed as Crystalline Form B of Compound of Formula (II)",crystal form B
same,AUC(0-t) at 24 h,[2]; [10],1.11 µM·h
same,Cmax,[2]; [10],123 nM
same,Tmax,[2]; [10],4 h
same,half-life,[2]; [10],5 h
CSc1sc(C(N)=O)c2c1-c1nc(Nc3cc(N4CCN(C)CC4)ccc3OC(F)(F)F)ncc1CC2 [listing 3 of 3 here],Result (crystal form),[4]; Condition 1: Acetonitrile 2.0 mL,crystal form A
same,Result (crystal form),[4]; Condition 2: Ethyl acetate 2.0 mL,crystal form A
same,Result (crystal form),[4]; Condition 3: Toluene 2.0 mL,crystal form A
same,Result (crystal form),[4]; Condition 4: Butanone 1.0 mL,crystal form A
same,stability in different solvents and at different temperatures,"[4]; conclusion over suspension, cooling and anti-solvent crystallization",good stability
same,Result (crystal form),[5]; Condition 1: Tetrahydrofuran 1.0 mL,crystal form A
same,Result (crystal form),[5]; Condition 2: 2- methyl - tetrahydrofuran 5.0 mL,crystal form A
same,Result (crystal form),"[6]; Condition 1: solvent THF, antisolvent H2O, 2.0+4.0 mL",crystal form A
same,Result (crystal form),"[6]; Condition 2: solvent THF, antisolvent IPA, 2.0+6 0. mL",crystal form A
same,Result (crystal form),"[6]; Condition 3: solvent THF, antisolvent Tol, 2.0+4.0 mL",crystal form A
same,Result (crystal form),"[6]; Condition 4: solvent DCM, antisolvent ACN, 4.0 mL",crystal form A
same,Result (crystal form),"[6]; Condition 5: solvent DCM, antisolvent MTBE, 4.0 mL",crystal form A
same,Result (crystal form),"[6]; Condition 6: solvent DMSO, antisolvent EtOAc, 0.6+8.0 mL",crystal form A
same,Hygroscopicity classification,[1],not hygroscopic
same,ΔW,[1],0.1671%
same,Crystal form,"[3]; 40 °C /75%RH, open, 10 days",crystal form A
same,Crystal form,"[3]; 40 °C /75%RH, open, 30 days",crystal form A
same,Crystal form,"[3]; 40 °C /75%RH, open, 60 days",crystal form A
same,Crystal form,"[3]; 60 °C /75%RH, open, 10 days",crystal form A
same,Crystal form,"[3]; 60 °C /75%RH, open, 30 days",crystal form A
same,Crystal form,"[3]; 60 °C /75%RH, open, 60 days",crystal form A
same,Crystal form,"[3]; Initial sample, Day 0",crystal form A
same,stability under high temperature and high humidity conditions,[3]; conclusion,good stability
same,absorption after oral administration,[2]; conclusion,well absorbed
same,AUC(0-t),[2]; [9],0.907 µM·h
same,Cmax,[2]; [9],106 nM
same,Tmax,[2]; [9],3 h
same,half-life,[2]; [9],4.6 h
same,inhibitory activity against PLK1,[7]; conclusion,good inhibitory activity
same,IC50,"[7]; substrate Casein 20 µM, PLK1 12 nM, 33P-ATP, 120 minutes at room temperature",2.48 nM
